Test [1] can be described thus: Test of hydrogen sulfide detection over time (^64CuS formation, radio-TLC). Type of test: physicochemical. The arrangement: unit not given here. The following applies: 100 μM NaHS, 37° C. The protocol:
To examine reactivity of the ^64Cu-labeled complex compound according to the present disclosure over time, the following experiment was performed.
A detailed experimental method is as follows.
About 45 μCi-50 μCi of ^64Cu-labeled complex compound (250 μL of triple distilled water) was mixed with 100 μM of NaHS solution ([…] of triple distilled water), and stirred at 37° C. for 15 minutes. Formation of copper sulfide (^64CuS) was quantified by using a radio-TLC scanner.

Test [2] is described as follows: Test of hydrogen sulfide detection sensitivity (% decomplexation with NaHS, radio-TLC). Particulars: for % decomplexation: 37° C. for 15 minutes; for % decomplexation against 100 μM NaHS solution: Table 3. The class given is physicochemical. Here is the method:
To measure hydrogen sulfide detection sensitivity of the ^64Cu-labeled complex compound according to the present disclosure, the following experiment was performed.
About 45 μCi-55 μCi of ^64Cu-labeled complex compound (250 μL of triple distilled water) was mixed with various concentrations of NaHS solution (250 µL of triple distilled water), and stirred at 37° C. for 15 minutes (a total volume used in the reaction was equally 500 μL). After completion of the reaction, the resulting products were strongly stirred to mix appropriately.
Formation of copper sulfide (^64CuS) was confirmed by quantification of % decomplexation by using a radio-TLC scanner, and results are shown in the following Tables 2 and 3.

A further test relates to Paw inflammation model. The class given is in vivo, Balb/c or ICR mice. The protocol: (1) Paw Pain Inflammation Model
A small amount of CFA (complete Freund's adjuvant) or formalin was injected into only one paw (right) of the hind paws of Balb/c or ICR mice to establish inflammation models. 1 day after injection of the inflammation inducer, the mice were used in imaging or other in vivo experiments.
It is a known fact that inflamed sites show high concentrations of hydrogen sulfide.
Nuclear medicine imaging was measured by using an Inveon PET/CT system of Siemens Healthcare, and optical imaging was measured by using IVIS spectrum CT equipment. Cherenkov radiation emitted from ^64Cu was measured by using a highly sensitive CCD (charge-coupled device) camera.
Imaging was measured for 1 minute to 5 minutes, and a radiation dose was about 50 μCi to 2000 μCi, and photographs were variously taken as needed, such as immediately after first injection, at 1 hour, 4 hours, and 24 hours later.

Test [3] is described as follows: Hydrogen sulfide selectivity test: decomplexation by Kl. Type of test: physicochemical. Particulars: 100 μM or KI (1 mM), 37° C. for 15 minutes. The protocol:
(§1) In addition to hydrogen sulfide, many different anions, radicals, etc. exist in the body. Therefore, to examine selective reactivity of the ^64Cu-labeled complex compound according to the present disclosure for sulfide ions, the following experiment was performed.
(§2) About 45 μCi-55 μCi of the ^64Cu-labeled complex compound (250 μL of triple distilled water) was mixed with 100 μM of various anion solutions (250 μL of triple distilled water) including biothiol, and stirred at 37° C. for 15 minutes.
(§3) Formation of copper sulfide (^64CuS) was quantified by using a radio-TLC scanner.
(§4) Various biothiol or salt solutions were prepared by dissolving the compounds in triple distilled water.
(§5) In Table, concentrations of all biothiols and other competitive materials are 100 μM. Further, specific concentrations of biothiols, anions, and oxidants used in Table are as follows: [L-Cys (1 mM); L-Hcys (10 mM); GSH (10 mM); DL-dithiothretitol (DTT, 100 μM); L-ascorbic acid (L-AsA, 10 mM); 2-mercaptoethanol (2-ME, 10 mM); NaCl (10 mm); KI (1 mM); Na2S2O3 (1 mM); Na2S2O5 (1 mM); NaOAc (1 mM); H2O2 ([…]); NaClO4 (100 μM); NaHCO3 (100 μM); NaNO2 ([…]); NaN3 (100 μM); ATB 337 (100 μM); diallyl trisulphide (100 μM)].

The nature of test [4]: Hydrogen sulfide selectivity test: decomplexation by NaClO4. The following applies: NaClO4 (100 μM); 37° C. for 15 minutes. The class given is physicochemical. Here is the method: as §1, §2, §3, §4, §5
Test [5] can be described thus: Hydrogen sulfide selectivity test: decomplexation by Na2S2O3. The following applies: 100 μM or (1 mM), 37° C. for 15 minutes. Type of test: physicochemical. Here is the method: as §1, §2, §3, §4, §5
Test [6] is described as follows: Hydrogen sulfide selectivity test: decomplexation by NaN3. Type of test: physicochemical. Particulars: NaN3 (100 μM); 37° C. for 15 minutes. The protocol:
as §1, §2, §3, §4, §5

A short description of test [7]: Hydrogen sulfide selectivity test: decomplexation by Hcys. The class given is physicochemical. The following applies: 100 μM or L-Hcys (10 mM), 37° C. for 15 minutes. The protocol:
as §1, §2, §3, §4, §5

The nature of test [8]: Hydrogen sulfide selectivity test: decomplexation by NaHCO3. The class given is physicochemical. The following applies: NaHCO3 (100 μM); 37° C. for 15 minutes. The protocol: as §1, §2, §3, §4, §5
The nature of test [9]: Hydrogen sulfide selectivity test: decomplexation by NaOAc. Type of test: physicochemical. Particulars: 100 μM or (1 mM), 37° C. for 15 minutes. Here is the method:
as §1, §2, §3, §4, §5

Test [10] is described as follows: Hydrogen sulfide selectivity test: decomplexation by NaNO2. Type of test: physicochemical. The following applies: NaNO2 (100 µM); 37° C. for 15 minutes. Here is the method:
as §1, §2, §3, §4, §5

Test [11] is described as follows: Hydrogen sulfide selectivity test: decomplexation by L-AsA. Type of test: physicochemical. Particulars: L-ascorbic acid; 100 μM or (L-AsA, 10 mM); 37° C. for 15 minutes. The protocol:
as §1, §2, §3, §4, §5

Test [12] in a line: Hydrogen sulfide selectivity test: decomplexation by ATB 337. Type of test: physicochemical. Particulars: ATB 337 (100 μM); 37° C. for 15 minutes. The protocol: as §1, §2, §3, §4, §5
Test [13] can be described thus: Hydrogen sulfide selectivity test: decomplexation by NaCl. The class given is physicochemical. The following applies: 100 μM or NaCl (10 mm), 37° C. for 15 minutes. The protocol: as §1, §2, §3, §4, §5
Test [14] can be described thus: Hydrogen sulfide selectivity test: decomplexation by ME. Type of test: physicochemical. The following applies: 2-mercaptoethanol; 100 μM or (2-ME, 10 mM); 37° C. for 15 minutes. The protocol: as §1, §2, §3, §4, §5
A short description of test [15]: Hydrogen sulfide selectivity test: decomplexation by GSH. Type of test: physicochemical. The following applies: 100 μM or GSH (10 mM), 37° C. for 15 minutes. The protocol:
as §1, §2, §3, §4, §5

A short description of test [16]: Hydrogen sulfide selectivity test: decomplexation by Na2S2O5. The following applies: 100 μM or (1 mM), 37° C. for 15 minutes. Type of test: physicochemical. The protocol:
as §1, §2, §3, §4, §5

Test [17] in a line: Hydrogen sulfide selectivity test: decomplexation by DTT. The class given is physicochemical. Particulars: DL-dithiothretitol (DTT, 100 μM); 37° C. for 15 minutes. Here is the method:
as §1, §2, §3, §4, §5

The nature of test [18]: Hydrogen sulfide selectivity test: decomplexation by Cys. The class given is physicochemical. The following applies: 100 μM or L-Cys (1 mM), 37° C. for 15 minutes. The protocol: as §1, §2, §3, §4, §5
The nature of test [19]: Hydrogen sulfide selectivity test: decomplexation by H2O2. Particulars: H2O2 (100 µM); 37° C. for 15 minutes. The class given is physicochemical. Here is the method: as §1, §2, §3, §4, §5
A short description of test [20]: Hydrogen sulfide selectivity test: decomplexation by DAT (diallyl trisulphide). The class given is physicochemical. Particulars: DAT = diallyl trisulphide (100 μM); 37° C. for 15 minutes. The protocol:
as §1, §2, §3, §4, §5

The subject of test [21] is Myocardial infarction model. In words: Imaging study in myocardial infarction model (PET). Particulars: PET imaging after injection. The class given is in vivo, Sprague-Dawley rats. From the text: (2) Myocardial Infarction Model
A myocardial infarction model was established by using Sprague-Dawley rats (12-week-old or older, about 250 g). 2 days later after induction of myocardial infarction by occlusion of the coronary arteries in the heart, the rats were used in imaging tests. It is a known fact that myocardial infarction sites show high concentrations of hydrogen sulfide.
It is known that myocardial infarction sites show high concentrations of hydrogen sulfide. Thus, after induction of myocardial infarction by coronary artery occlusion in rats, 50 μCi-900 μCi of the ^64Cu-labeled complex compound was injected via the tails of the rats, and uptake in the myocardial infarction site was examined over time by PET imaging.
36 hours after establishment of the myocardial infarction model, 730 μCi of the radioisotope-labeled complex compound of the present disclosure was injected and nuclear medicine imaging was performed. 2 days later, […] of FDG was injected into the same rat, and then FDG-PET images were obtained. Results are shown in FIGS. 15 to 17 (in the nuclear medicine imaging, the upper image represents a transverse image, and the lower image represents a coronal image).

As to `[64Cu+2].c1ccc2c(CN3CCNCCNCCNCC3)c3ccccc3cc2c1` [Example 2], the “Formation of copper sulfide (^64CuS) over time” value was found to be 21 in test [1] (10 sec); 22 in [1] (30 sec); 33 in test [1] (60 sec); 82 in test [1] (5 min); 100 in test [1] (10 min); 100 in test [1] (15 min). In addition, the “% decomplexation” value in test [2] (NaHS 0 μM) worked out at 0%; in test [2] (NaHS 1 μM) it was 0%; in test [2] (NaHS 10 μM) it was 0%; in test [2] (NaHS 15 μM), 0%; in test [2] (NaHS 20 μM), 15%; in test [2] (NaHS 50 μM) it was 56%. Further, the “% decomplexation” value in [2] (NaHS 100 μM) is on record as 100%. In the test with Paw inflammation model (optical imaging and nuclear medicine imaging), the “selective uptake in inflamed sites” value is reported as “selective uptake”.
For `CC1CC[N]2C3CCCCC3[N]3C(C)CC[N]4C5CCCCC5[N]1[64Cu]423` (stereo not shown) [Example 9], the “uptake in inflamed paw versus opposite paw” value in the test with Paw inflammation model (optical and nuclear medicine imaging performed 2 hours later) is “higher uptakes”.
As to `C1C[SH]2CC[SH]3CC[SH]4CC[N]1[64Cu]243` (stereo not shown) [Example 23], the “Decomplexation [%]” value is reported as 0.2% in [3]; 0.8% in test [4]; 0.2% in [5]; 0.8% in [6]; 0.4% in test [7]; 0.1% in test [8]. For the same molecule, the “Decomplexation [%]” value in [9] is reported as 0.3%; in test [10] it was 0.6%; in test [11] it was 0.4%; in [12], 0.6%; in [13], 0.5%; in [14] it was 0.5%. For the same molecule, the “Decomplexation [%]” value in test [15] came out at 0.7%; in test [16], 0.6%; in [17], 0.4%; in test [18] it was 0.5%; in [19], 0.3%; in test [20] it was 0.4%. Besides, in test [2], the “% decomplexation against 100 μM NaHS solution” value is reported as 78.3 ± 2.6%. For the same molecule, the “% decomplexation” value in [2] (NaHS 0 μM) is 0%; in [2] (NaHS 1 μM) it was 0%; in test [2] (NaHS 10 μM) it was 0%; in test [2] (NaHS 15 μM), 36.4%; in test [2] (NaHS 20 μM), 49.4%; in test [2] (NaHS 50 μM), 67.7%. Besides, in test [2] (NaHS 100 μM), the “% decomplexation” value came out at 78.2%.
For `CN1CCCNCCNCCNCC1.[64Cu+2]` [Example 24], in [2], the “% decomplexation against 100 μM NaHS solution” value was 0%.
On to `C1CNCCN2CCCNCCN(C1)CCC2` [Example 25], for which the “% decomplexation against 100 μM NaHS solution” value in test [2] was determined as 0%.
As for `C/C(=N\O)[C@@H](C)NCC(C)(C)CN[C@H](C)/C(C)=N/O` [Example 26], in [2], the “% decomplexation against 100 μM NaHS solution” value came to 62.43 ± 0.87%.
Regarding `c1ccc(CNCc2ccccn2)nc1` [Example 33], the “% decomplexation against 100 μM NaHS solution” value in test [2] is 26.6%.
For the molecule `OC[C@H]1O[C@@H](O)[C@H]([18F])[C@@H](O)[C@@H]1O` [FDG, reference compound], in test [21], the “uptake / visualisation of the myocardial infarction site” value is on record as “uptake did not occur in the myocardial infarction site”.

The values are drawn from US10583206B2, “Radioactive probe for detecting hydrogen sulfide” (KYUNGPOOK NATIONAL UNIVERSITY INDUSTRY-ACADEMIC COOPERATION …, priority 2015, dated 2020).
